Experimental data: patent US20260374781A1, “NOVEL TRIHETEROCYCLIC COMPOUNDS” (IDENCE CO., LTD., priority 2022, published 2026)

Tests used:
SW480 cells = experiment: Cell Proliferation Assay, SW480 (CellTiter-Glo 2.0 viability); assay type: cell-based; conditions: Homo sapiens; SW480 colon cancer (KRAS G12V mutation); 72 hours
Experimental: Test Example 3: Cell Proliferation Assay
Cell viability testing of test compounds in AsPC-1 pancreatic cancer (KRAS G12D mutation) or SW480 colon cancer (KRAS G12V mutation) cells for 72 hours
The reference compound Staurosporine was purchased from Sigma-Aldrich (Saint Louis, MI), and CellTiter-Glo® 2.0 Luminescent cell viability assay reagent (cat #G9243) was purchased from Promega (Madison, WI). AsPC-1 and SW480 cell lines were purchased from American Type Culture Collection (Manassas, VA). AsPC-1 cells were cultured with RPMI-1640 (ATCC, cat #30-2001) and SW480 cells were cultured with DMEM (ATCC cat #30-2002).
A medium supplemented with 10% FBS (Sigma-Aldrich, cat #F2442) and 100 µg/mL of penicillin-streptomycin (Sigma-Aldrich, cat #P4333) was used. Cells were cultured at 37 °C in a humidified atmosphere of 5% CO2 and 95% air.
• 1. The test compound and reference compound, Staurosporine were dissolved in DMSO solution to prepare 20 mM (test compound) and 10 mM (control compound, Staurosporine) in the Source Plate and diluted with DMSO to 3-fold and 10 doses. • 2. From the Source Plate, 10 volumes of 125 nL test compound or 25 nL reference compound were dispensed into wells of a 384-well culture plate (VWR, cat #82050-076) using Echo 655. • 3. 25 μL of culture medium including 2000 AsPC-1 or SW480 cells was dispensed into each 384-well cell culture plate. • 4. Cells were cultured with the compound for 72 hours at 37 °C and 5% CO2 conditions. • 5. 25 μL of CellTiter-Glo 2.0 reagent was added to each well of the plate. • 6. The contents were mixed for 2 minutes on an orbital shaker, and the luminescence signal was stabilized at room temperature for 15 minutes. • 7. Luminescence signals were measured with an Envision 2104 Multilabel Reader (PerkinElmer, Santa Clara, CA), and the number of surviving cells was determined through quantification of ATP present in each culture. • 8. IC50 values were calculated based on the Sigmoidal dose-response equation in the GraphPad Prism 4 program.

KRAS G12V = target: T1, KRAS G12V (Homo sapiens, UniProt P01116, G12V); experiment: KRAS Nucleotide Exchange Assay (SOS1-mediated), G12V; assay type: biochemical; conditions: HTRF, 20 nM KRAS, 50 nM SOS1, 60 minutes preincubation, 60 minutes reaction
T1 construct: GST-tagged KRAS WT or mutant protein (amino acids 2-169)
Description: (§1) Test Example 1: KRAS Nucleotide Exchange Assay
(§2) Evaluation of the inhibitory effect of compounds on SOS1-mediated nucleotide exchange activity of KIRAS^WT, KRAS^G12D, KRAS^G12V, KRAS^G12C and KRAS^G13D mutants
(§3) The assay monitors SOS1 mediated exchange of KRAS bound unlabeled GDP to fluorescently labeled GTP. The detection is based on the transfer of energy between two fluorophores when they are in close proximity. Donor is the Tb cryptate labeled anti-GST antibody and acceptor is a DY-647P1 GTP.
(§4) • GST-tagged KRAS WT or mutant protein (amino acids 2-169), • SOS1 (amino acids 564-1049), • Labeled GTP (GTP-DY-647P1), • Assay Buffer (20 mM HEPES pH 7.4, 150 mM NaCl, 5 mM MgCl2, 1 mM DTT, 0.05% BSA, 0.0025% NP40)
(§5) • 1. KRAS protein was diluted with assay buffer to reach 1.5 times of the final concentration, then mixed with Tb cryptate anti-GST antibody and added at 10 μL to each assay well (all of the final concentration was 20 nM for KRAS^WT, KRAS^G12D, and KRAS^G12V) • 2. The compound was dissolved in DMSO and diluted to prepare 100 times of the final concentration. • 3. Compounds were dispensed into assay wells using an ECHO acoustic dispenser (Beckman), mixed gently with the KRAS/Ab mixture, and incubated for 60 minutes. • 4. SOS1 and labeled GTP were mixed, diluted to 3 times of the final concentration with assay buffer, and 5 μL of the solution was added to the assay well to initiate the reaction (final concentration of labeled GTP was […], final concentration of SOS1 was 7.5 nM in WT, 12.5 nM in G12D and 50 nM in G12V). Only assay buffer and labeled GTP were added to the blank well. • 5. The reaction was monitored at Ex/Em=(337/665; 337/620) using a Pherastar Plate Reader (BMG). • 6. HTRF signals were analyzed approximately 25 minutes after the start of the reaction (60 minutes reaction for G12V). • 7. Nucleotide exchange activity is expressed as a percentage difference compared to the DMSO reaction value, and the IC50 value was calculated based on the four-parameter logistic equation in GraphPad 4.0 software.

KRAS G12D = target: T2, KRAS G12D (Homo sapiens, UniProt P01116, G12D); experiment: KRAS Nucleotide Exchange Assay (SOS1-mediated), G12D; assay type: biochemical; conditions: HTRF, 20 nM KRAS, 12.5 nM SOS1, 60 minutes preincubation, approximately 25 minutes reaction
T2 construct: GST-tagged KRAS WT or mutant protein (amino acids 2-169)
Description: as §1, §2, §3, §4, §5

KRAS G13D = target: T3, KRAS G13D (Homo sapiens, UniProt P01116, G13D); experiment: KRAS Nucleotide Exchange Assay (SOS1-mediated), G13D; assay type: biochemical; conditions: HTRF, 60 minutes preincubation, approximately 25 minutes reaction
T3 construct: GST-tagged KRAS WT or mutant protein (amino acids 2-169)
Description: as §1, §2, §3, §4, §5

AsPC-1 cells = experiment: Cell Proliferation Assay, AsPC-1 (CellTiter-Glo 2.0 viability); assay type: cell-based; conditions: AsPC-1 pancreatic cancer (KRAS G12D mutation)
In short: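 AsPC-1 (KRAS G12D, RPMI-1640) and SW480 (KRAS G12V, DMEM) cells in 10% FBS, 2000 cells/well, exposed to 10-point 3-fold compound dilutions for 72 h at 37 °C. Viability by CellTiter-Glo 2.0 luminescence (ATP). IC50 from sigmoidal dose-response fit.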

KRAS G12C = target: T4, KRAS G12C (Homo sapiens, UniProt P01116, G12C); experiment: KRAS Nucleotide Exchange Assay (SOS1-mediated), G12C; assay type: biochemical; conditions: HTRF, 60 minutes preincubation, approximately 25 minutes reaction
T4 construct: GST-tagged KRAS WT or mutant protein (amino acids 2-169)
Description: as §1, §2, §3, §4, §5

KRAS WT = target: T5, KRAS WT (Homo sapiens, UniProt P01116); experiment: KRAS Nucleotide Exchange Assay (SOS1-mediated), WT; assay type: biochemical; conditions: HTRF, 20 nM KRAS, 7.5 nM SOS1, 60 minutes preincubation, approximately 25 minutes reaction
T5 construct: GST-tagged KRAS WT or mutant protein (amino acids 2-169)
Description: as §1, §2, §3, §4
• 1. […] The reaction was monitored at Ex/Em=(337/665; 337/620) using a Pherastar Plate Reader (BMG). • 6. HTRF signals were analyzed approximately 25 minutes after the start of the reaction (60 minutes reaction for G12V). • 7. Nucleotide exchange activity is expressed as a percentage difference compared to the DMSO reaction value, and the IC50 value was calculated based on the four-parameter logistic equation in GraphPad 4.0 software.

T4 sequence (P01116 2-169 isoform P01116-2 G12C): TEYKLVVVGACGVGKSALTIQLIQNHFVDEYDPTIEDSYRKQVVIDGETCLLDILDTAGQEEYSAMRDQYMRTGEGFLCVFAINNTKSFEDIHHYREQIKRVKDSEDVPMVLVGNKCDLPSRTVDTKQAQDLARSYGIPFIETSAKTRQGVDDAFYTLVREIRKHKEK
T2 sequence (P01116 2-169 isoform P01116-2 G12D): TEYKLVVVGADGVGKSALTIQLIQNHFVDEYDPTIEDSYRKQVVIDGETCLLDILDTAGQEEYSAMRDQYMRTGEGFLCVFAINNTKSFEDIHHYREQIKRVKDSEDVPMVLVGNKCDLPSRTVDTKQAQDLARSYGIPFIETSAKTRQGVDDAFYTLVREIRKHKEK
T3 sequence (P01116 2-169 isoform P01116-2 G13D): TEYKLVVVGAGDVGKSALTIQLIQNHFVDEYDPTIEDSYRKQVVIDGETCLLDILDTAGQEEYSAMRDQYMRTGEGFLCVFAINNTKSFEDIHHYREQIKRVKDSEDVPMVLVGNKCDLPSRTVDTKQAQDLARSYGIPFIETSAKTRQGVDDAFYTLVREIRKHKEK
T1 sequence (P01116 2-169 isoform P01116-2 G12V): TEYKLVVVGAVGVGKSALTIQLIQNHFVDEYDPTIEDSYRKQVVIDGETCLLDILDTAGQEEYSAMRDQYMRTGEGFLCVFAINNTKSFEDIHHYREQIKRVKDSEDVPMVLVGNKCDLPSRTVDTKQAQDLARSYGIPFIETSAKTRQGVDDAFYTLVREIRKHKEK
T5 sequence (P01116 2-169 isoform P01116-2): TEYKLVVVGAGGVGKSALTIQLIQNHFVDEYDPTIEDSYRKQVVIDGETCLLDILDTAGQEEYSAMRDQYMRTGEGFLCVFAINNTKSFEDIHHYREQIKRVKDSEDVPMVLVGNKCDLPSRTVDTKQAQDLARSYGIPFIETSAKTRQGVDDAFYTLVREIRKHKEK

Structure (SMILES) | IC50 (SW480 cells) [nM] | IC50 (KRAS G12V) [nM] | IC50 (KRAS G12D) [nM] | IC50 (KRAS G13D) [nM] | IC50 (AsPC-1 cells; Homo sapiens, ASPC1, 72 h) [nM] | IC50 (KRAS G12C) [nM] | IC50 (KRAS WT) [nM] | IC50 (AsPC-1 cells; 72 hours) [nM]
CCc1c(F)ccc2cc(O)cc(-c3nc4c5c(nc(OC[C@@]67CCCN6C[C@H](F)C7)nc5c3F)N(C(C)c3cccnc3N)CCO4)c12 (mixture of isomers) [Example 14, 4-(10-(1-(2-aminopyridin-3-yl)ethyl)-4-fluoro-2-(((2R,7aS)-2-fluorotetrahydro-1H-pyrrolizin-7a(5H)-yl)methoxy)-9,10-dihydro-8H-7-oxa-1,3,6,10-tetraazacyclohepta[de]naphthalen-5-yl)-5-ethyl-6-fluoronaphthalen-2-ol] | < 1000 | 2.79 | 3.79 | 8.71 | < 1000 | 1.78 |  | 
CCc1c(F)ccc2cc(O)cc(-c3nc4c5c(nc(OC[C@@]67CCCN6C[C@H](F)C7)nc5c3F)N(CC3(N(C)C)CCC3)CCO4)c12 [Example 1, 4-(10-((1-(dimethylamino)cyclobutyl)methyl)-4-fluoro-2-(((2R,7aS)-2-fluorotetrahydro-1H-pyrrolizin-7a(5H)-yl)methoxy)-9,10-dihydro-8H-7-oxa-1,3,6,10-tetraazacyclohepta[de]naphthalen-5-yl)-5-ethyl-6-fluoronaphthalen-2-ol] |  | 33.4 | 1.26 |  | > 10000 |  | 6.22 | 
C#Cc1c(F)ccc2cc(O)cc(-c3nc4c5c(nc(OC[C@@]67CCCN6C[C@H](F)C7)nc5c3F)N(C(C)c3cccnc3N)CCO4)c12 (stereo partly drawn) [Example 13, 4-(10-(1-(2-aminopyridin-3-yl)ethyl)-4-fluoro-2-(((2R,7aS)-2-fluorotetrahydro-1H-pyrrolizin-7a(5H)-yl)methoxy)-9,10-dihydro-8H-7-oxa-1,3,6,10-tetraazacyclohepta[de]naphthalen-5-yl)-5-ethynyl-6-fluoronaphthalen-2-ol] | < 1000 | 1.38 | 1.65 | 3.69 |  | 0.609 |  | < 1000
CC(c1cccnc1N)N1CCOc2nc(-c3cc(O)cc4ccc(F)c(F)c34)c(F)c3nc(OC[C@@]45CCCN4C[C@H](F)C5)nc1c23 (stereo partly drawn) [Example 16, 4-(10-(1-(2-aminopyridin-3-yl)ethyl)-4-fluoro-2-(((2R,7aS)-2-fluorotetrahydro-1H-pyrrolizin-7a(5H)-yl)methoxy)-9,10-dihydro-8H-7-oxa-1,3,6,10-tetraazacyclohepta[de]naphthalen-5-yl)-5,6-difluoronaphthalen-2-ol] | < 1000 | 2.3 | 2.35 | 4.94 | < 1000 | 0.916 |  | 
